The values that follow come from US20230183237A1, “COMPETITIVE AND NONCOMPETITIVE INHIBITORS OF THE MUSCARINIC ACETYLCHOLINE RECEPTOR M5” (Vanderbilt University, priority 2020, published 2023).

The IC50 is the concentration that gives 50% inhibition.

In this test the target is T1, hM5 (Homo sapiens, UniProt P08912).
T1 construct: expressed in transfected cells
T1 sequence (P08912 1-532): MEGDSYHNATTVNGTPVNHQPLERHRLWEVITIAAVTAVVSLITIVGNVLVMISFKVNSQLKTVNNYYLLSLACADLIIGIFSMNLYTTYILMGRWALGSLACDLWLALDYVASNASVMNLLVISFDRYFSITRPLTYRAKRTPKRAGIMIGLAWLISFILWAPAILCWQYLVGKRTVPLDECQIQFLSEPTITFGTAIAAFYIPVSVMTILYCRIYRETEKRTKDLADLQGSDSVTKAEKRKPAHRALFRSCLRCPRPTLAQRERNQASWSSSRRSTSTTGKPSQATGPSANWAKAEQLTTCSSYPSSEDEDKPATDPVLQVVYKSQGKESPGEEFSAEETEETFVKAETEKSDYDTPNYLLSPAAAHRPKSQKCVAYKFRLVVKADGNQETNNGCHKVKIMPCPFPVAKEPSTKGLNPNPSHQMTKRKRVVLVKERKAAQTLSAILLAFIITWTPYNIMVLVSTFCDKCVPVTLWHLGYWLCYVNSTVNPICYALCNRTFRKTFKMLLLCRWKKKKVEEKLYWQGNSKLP
In words: Calcium mobilization concentration-response (IC50 vs EC80 acetylcholine), CHO hM5. The test is classed as cell-based. The following applies: CELL LINE hM5; calcium mobilization, EC80 acetylcholine addition; read-out: IC50. In a few lines:
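IC50 values derive from percent maximal acetylcholine response after an EC80 ACh addition, measured as kinetic calcium fluorescence (static ratio, max−min). Test compounds were added 140 s before agonist. Cells: stable hM5-CHO in HEPES-buffered HBSS with 2.5 mM probenecid, pH 7.4; ≥3 independent triplicate determinations.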

In the case of `O=S(=O)(c1cc2c(cc1F)OCC2)N1CCC(c2cn3ncnc3cc2F)CC1` [Compound 106, 7-fluoro-6-(1-((6-fluoro-2,3-dihydrobenzofuran-5-yl)sulfonyl)piperidin-4-yl)-[1,2,4]triazolo[1,5-a]pyridine], the IC50 was > 10000 nM.
For `O=S(=O)(c1ccc2ncsc2c1)N1CCC(c2cn3ncnc3cc2F)CC1` [Compound 107, 6-((4-(7-fluoro-[1,2,4]triazolo[1,5-a]pyridin-6-yl)piperidin-1-yl)sulfonyl)benzo[d]thiazole] the value was > 10000 nM; for `Cc1nn(C)cc1S(=O)(=O)N1CCC(c2cn3ncnc3cc2F)CC1` [Compound 108, 6-(1-((1,3-dimethyl-1H-pyrazol-4-yl)sulfonyl)piperidin-4-yl)-7-fluoro-[1,2,4]triazolo[1,5-a]pyridine], > 10000 nM.
As for `O=S(=O)(c1ccc2c(c1)CCO2)N1CCC(c2cn3ncnc3cc2C(F)(F)F)CC1` [Compound 109, 6-(1-((2,3-dihydrobenzofuran-5-yl)sulfonyl)piperidin-4-yl)-7-(trifluoromethyl)-[1,2,4]triazolo[1,5-a]pyridine], the figure is 746 nM.
As for `O=S(=O)(c1cc2c(cc1F)OCC2)N1CCC(c2cn3ncnc3cc2C(F)(F)F)CC1` [Compound 110, 6-(1-((6-fluoro-2,3-dihydrobenzofuran-5-yl)sulfonyl)piperidin-4-yl)-7-(trifluoromethyl)-[1,2,4]triazolo[1,5-a]pyridine], the figure is 2100 nM; as for `O=S(=O)(c1ccc2ncsc2c1)N1CCC(c2cn3ncnc3cc2C(F)(F)F)CC1` [Compound 111, 6-((4-(7-(trifluoromethyl)-[1,2,4]triazolo[1,5-a]pyridin-6-yl)piperidin-1-yl)sulfonyl)benzo[d]thiazole], 1800 nM; as for `O=S(=O)(c1ccc(Cl)nc1)N1CCC(c2cn3ncnc3cc2C(F)(F)F)CC1` [Compound 112, 6-(1-((6-chloropyridin-3-yl)sulfonyl)piperidin-4-yl)-7-(trifluoromethyl)-[1,2,4]triazolo[1,5-a]pyridine], > 10000 nM.
On to `Cc1nn(C)cc1S(=O)(=O)N1CCC(c2cn3ncnc3cc2C(F)(F)F)CC1` [Compound 113, 6-(1-((1,3-dimethyl-1H-pyrazol-4-yl)sulfonyl)piperidin-4-yl)-7-(trifluoromethyl)-[1,2,4]triazolo[1,5-a]pyridine], for which the IC50 was 2400 nM.
Consider `COc1cc(C2CCN(S(=O)(=O)c3ccc4c(c3)CCO4)CC2)cn2ncnc12` [Compound 114, 6-(1-((2,3-dihydrobenzofuran-5-yl)sulfonyl)piperidin-4-yl)-8-methoxy-[1,2,4]triazolo[1,5-a]pyridine], for which the IC50 was > 10000 nM.
For `COc1cc(C2CCN(S(=O)(=O)c3cc4c(cc3F)OCC4)CC2)cn2ncnc12` [Compound 115, 6-(1-((6-fluoro-2,3-dihydrobenzofuran-5-yl)sulfonyl)piperidin-4-yl)-8-methoxy-[1,2,4]triazolo[1,5-a]pyridine] the value was > 10000 nM; for `Cc1cc2ncnn2cc1C1CCN(S(=O)(=O)c2c(F)cc3c(c2F)C(C)CO3)CC1` (stereo not drawn) [Compound 116, 6-(1-((4,6-difluoro-3-methyl-2,3-dihydrobenzofuran-5-yl)sulfonyl)piperidin-4-yl)-7-methyl-[1,2,4]triazolo[1,5-a]pyridine], 205 nM; for `Cc1cc2ncnn2cc1C1CCN(S(=O)(=O)c2c(C(F)(F)F)nn(C)c2C)CC1` [Compound 118, 6-(1-((1,5-dimethyl-3-(trifluoromethyl)-1H-pyrazol-4-yl)sulfonyl)piperidin-4-yl)-7-methyl-[1,2,4]triazolo[1,5-a]pyridine], 81 nM.
On to `Cc1cc2ncnn2cc1C1CCN(S(=O)(=O)c2ccc3c(c2)N(C)CCO3)CC1` [Compound 121, 4-methyl-6-((4-(7-methyl-[1,2,4]triazolo[1,5-a]pyridin-6-yl)piperidin-1-yl)sulfonyl)-3,4-dihydro-2H-benzo[b][1,4]oxazine], for which the IC50 was found to be 343 nM.
For `Cc1cc2ncnn2cc1C1CCN(S(=O)(=O)c2ccc3c(c2)nnn3C)CC1` [Compound 124, 1-methyl-5-((4-(7-methyl-[1,2,4]triazolo[1,5-a]pyridin-6-yl)piperidin-1-yl)sulfonyl)-1H-benzo[d][1,2,3]triazole] the value was > 10000 nM; for `Cc1cc2ncnn2cc1C1CCN(S(=O)(=O)c2ccsc2)CC1` [Compound 125, 7-methyl-6-(1-(thiophen-3-ylsulfonyl)piperidin-4-yl)-[1,2,4]triazolo[1,5-a]pyridine], > 10000 nM.
For `Cc1cc2ncnn2cc1C1CCN(S(=O)(=O)c2ccc3c(c2)CCO3)C1` (stereo not drawn) [Compound 126, 6-(1-((2,3-dihydrobenzofuran-5-yl)sulfonyl)pyrrolidin-3-yl)-7-methyl-[1,2,4]triazolo[1,5-a]pyridine] the value was > 10000 nM; for `Cc1cc2ncnn2cc1C1CCN(S(=O)(=O)c2cc3c(cc2F)OCC3)C1` (stereo not drawn) [Compound 127, 6-(1-((6-fluoro-2,3-dihydrobenzofuran-5-yl)sulfonyl)pyrrolidin-3-yl)-7-methyl-[1,2,4]triazolo[1,5-a]pyridine], > 10000 nM.
Turning to `Cc1cc2ncnn2cc1C1CCN(S(=O)(=O)c2cn(C)cn2)CC1` [Compound 128, 7-methyl-6-(1-((1-methyl-1H-imidazol-4-yl)sulfonyl)piperidin-4-yl)-[1,2,4]triazolo[1,5-a]pyridine], the IC50 was 1300 nM.
For `Cc1nc(C(F)(F)F)c(S(=O)(=O)N2CCC(c3cn4ncnc4cc3C)CC2)s1` [Compound 129, 2-methyl-5-((4-(7-methyl-[1,2,4]triazolo[1,5-a]pyridin-6-yl)piperidin-1-yl)sulfonyl)-4-(trifluoromethyl)thiazole], the IC50 worked out at 3800 nM.
For `COc1ccc(S(=O)(=O)N2CCC(c3cn4ncnc4cc3C)CC2)cc1C(F)(F)F` [Compound 130, 6-(1-((4-methoxy-3-(trifluoromethyl)phenyl)sulfonyl)piperidin-4-yl)-7-methyl-[1,2,4]triazoto[1,5-a]pyridine] the value was > 10000 nM; for `[2H]C([2H])([2H])n1ncc(S(=O)(=O)N2CCC(c3cn4ncnc4cc3C)CC2)c1C1CC1` [Compound 131, 6-(1-((5-cyclopropyl-1-(methyl-d3)-1H-pyrazol-4-yl)sulfonyl)piperidin-4-yl)-7-methyl-[1,2,4]triazolo[1,5-a]pyridine], 28 nM.
For `[2H]C([2H])([2H])n1cc(S(=O)(=O)N2CCC(c3cn4ncnc4cc3C)CC2)c(C2CC2)n1` [Compound 132, 6-(1-((3-cyclopropyl-1-(methyl-d3)-1H-pyrazol-4-yl)sulfonyl)piperidin-4-yl)-7-methyl-[1,2,4]triazolo[1,5-a]pyridine] the value was 1300 nM; for `CCn1ncc(S(=O)(=O)N2CCC(c3cn4ncnc4cc3C)CC2)c1C1CC1` [Compound 133, 6-(1-((5-cyclopropyl-1-ethyl-1H-pyrazol-4-yl)sulfonyl)piperidin-4-yl)-7-methyl-[1,2,4]triazolo[1,5-a]pyridine], > 10000 nM.
With `CCn1cc(S(=O)(=O)N2CCC(c3cn4ncnc4cc3C)CC2)c(C2CC2)n1` [Compound 134, 6-(1-((3-cyclopropyl-1-ethyl-1H-pyrazol-4-yl)sulfonyl)piperidin-4-yl)-7-methyl-[1,2,4]triazolo[1,5-a]pyridine], the IC50 was > 10000 nM.
For `Cc1cc2ncnn2cc1C1CCN(S(=O)(=O)c2cnc3c(c2)C(C)CO3)CC1` (stereo not drawn) [Compound 136, 3-methyl-5-((4-(7-methyl-[1,2,4]triazolo[1,5-a]pyridin-6-yl)piperidin-1-yl)sulfonyl)-2,3-dihydrofuro[2,3-b]pyridine] the value was 235 nM; for `Cc1cc2ncnn2cc1C1CCN(S(=O)(=O)c2c(C)nn(C)c2Cl)CC1` [Compound 138, 6-(1-((5-chloro-1,3-dimethyl-1H-pyrazol-4-yl)sulfonyl)piperidin-4-yl)-7-methyl-[1,2,4]triazolo[1,5-a]pyridine], 26 nM; for `O=S(=O)(c1ccc2c(c1)CCO2)N1CC=C(c2cn3ncnc3cc2Cl)CC1` [Compound 139, 7-chloro-6-(1-((2,3-dihydrobenzofuran-5-yl)sulfonyl)-1,2,3,6-tetrahydropyridin-4-yl)-[1,2,4]triazolo[1,5-a]pyridine], 149 nM.
For `O=S(=O)(c1ccc2c(c1)CCO2)N1CC=C(c2cc3ncnn3cc2Cl)CC1` [Compound 140, 6-chloro-7-(1-((2,3-dihydrobenzofuran-5-yl)sulfonyl)-1,2,3,6-tetrahydropyridin-4-yl)-[1,2,4]triazolo[1,5-a]pyridine], the IC50 was > 10000 nM.
Consider `Cc1cc2ncnn2cc1C1CCN(S(=O)(=O)c2cnc3c(c2)CCO3)CC1` [Compound 141, 5-((4-(7-methyl-[1,2,4]triazolo[1,5-a]pyridin-6-yl)piperidin-1-yl)sulfonyl)-2,3-dihydrofuro[2,3-b]pyridine], for which the IC50 was determined as 1400 nM.
For `Cc1c(S(=O)(=O)N2CC=C(c3cc4ncnn4cc3Cl)CC2)cnn1C` [Compound 142, 6-chloro-7-(1-((1,5-dimethyl-1H-pyrazol-4-yl)sulfonyl)-1,2,3,6-tetrahydropyridin-4-yl)-[1,2,4]triazolo[1,5-a]pyridine] the value was 253 nM.
